The values below come from patent US8975232B2, “Macrocyclic kinase inhibitors and uses thereof” (President and Fellows of Harvard College, priority 2010, dated 2015).

Read-outs that look alike come from different tables or passages of the source. Bounds are passed on as bounds.

For assay [1], the target named is T1, Src kinase (Homo sapiens, UniProt P12931). Description: In vitro selection of DNA-templated macrocycle library against GST-fused target. The assay is classed as binding. Particulars: one round of selection; DNA-linked library member. An excerpt:
Multiple representatives were chosen from each protein class so that we could compare selection results within protein families. In total, we performed a single round of in vitro selection against 36 protein targets. Additionally, we also performed a selection for binding to GST (with no fused target protein) immobilized on glutathione-linked resin. Although successive rounds of selection (with or without DNA amplification and translation between rounds) can multiply net enrichment factors,^29 we hypothesized that recent advances in ultra high-throughput DNA sequencing would enable even modest enrichment factors to be robustly detected, and the findings in this work are the result of a single round of selection on each protein target.
Following in vitro selection, DNA templates linked to target-binding macrocycles were amplified in PCR reactions using primers containing “barcode” sequences specific to each selection (FIG. 3). We also amplified DNA templates from eight aliquots of the unselected library to determine the initial abundance of each library member. A set of 12 five-base barcodes used in pairwise combinations provided sufficient encoding complexity for one round of selection against 36 protein targets, a control selection against immobilized GST, and eight pre-selection library samples (Table 3). These barcodes were designed to differ by at least three bases from one another so that common DNA sequencing errors would not preclude barcode assignment. After affinity selection and PCR amplification, barcoded samples were combined in equimolar amounts and submitted for ultra high-throughput DNA sequencing^46,47 as a single sample.
To rapidly identify the DNA-linked macrocycles that survived target affinity selection, we used Solexa (Illumina) DNA sequencing technology.^48 Because standard Solexa sequencing read lengths at the time of this experiment were shorter than the length of our barcoded library templates (84 base pairs), the paired-end sequencing method, which provides both forward and reverse sequencing reads for each template, was used. We created a PERL computer program to analyze the large amount of data emerging from high-throughput sequencing. First, forward and reverse sequence reads were merged to give complete template sequences (FIG. 4a). Each complete DNA sequence was converted into a combination of a barcode (selection identity) and three codons (building block identities). Template sequences were then binned by barcode to deconvolute the results of each selection. The abundance fraction of each library member was determined within each selection by counting the number of corresponding DNA sequence occurrences and dividing by the total number of interpretable sequence reads for that selection. Finally, enrichment factors for each library member were computed by dividing post-selection abundance fraction by pre-selection abundance fraction. In total, we received 25.6 million paired forward and reverse sequence reads from two Solexa sequencing runs. Of these, all four codons (which require five out of six correct bases per codon for the building blocks, and three out of three correct bases per codon for the scaffold^24) and the selection barcode (which requires four out of five correct bases) could be conclusively assigned for 12.4 million sequences. As a result, we obtained ˜200,000 sequence reads for each selection, and 1.7 million sequence reads of the pre-selection library.
In vitro selections of the 13,824-membered library were conducted exactly as described above for the positive control selections. For each selection, 5 pmol of library were used. PCR amplification of selection survivors was performed with 5′-barcoded forward and reverse primers. Barcoded PCR amplicons were quantitated using Picogreen dsDNA quantitation reagent (Invitrogen), mixed in equimolar amounts, and submitted for high-throughput DNA sequencing.

For assay [2], the target named is T1, Src kinase. Description: Z'-LYTE kinase assay (Invitrogen), Src. Set-up: full-length kinase in the Z-LYTE assay vs. kinase domain in the current study; purchased Millipore. The assay is classed as biochemical. As to the method:
Nine macrocycles enriched in the Src selection (FIG. 5) and synthesized as described above were assayed in vitro for the ability to inhibit Src kinase activity. Kinase activity was assayed in the presence of varying concentrations of macrocycle using the FRET-based Z′-LYTE assay (Invitrogen).
(§1) Src IC50 determinations and single-point inhibition measurements were performed using Invitrogen's Z′-LYTE Tyr 02 assay kit according to the manufacturer's protocols. All kinase assays were performed at ATP concentrations near KM,ATP values, except where noted otherwise. Active human Src kinase was obtained from Millipore. For kinome profiling and IC50 determinations against non-Src kinases, compounds were submitted to Invitrogen's SelectScreen Kinase Profiling Service.

Another assay has as its target ABL1 (Homo sapiens, UniProt P00519). Description: SelectScreen kinase profiling. The format is biochemical. As to the method: as §1
The target in another assay is T2, AURKA (Aurora A) (Homo sapiens, UniProt O14965).
T2 sequence (O14965 1-403): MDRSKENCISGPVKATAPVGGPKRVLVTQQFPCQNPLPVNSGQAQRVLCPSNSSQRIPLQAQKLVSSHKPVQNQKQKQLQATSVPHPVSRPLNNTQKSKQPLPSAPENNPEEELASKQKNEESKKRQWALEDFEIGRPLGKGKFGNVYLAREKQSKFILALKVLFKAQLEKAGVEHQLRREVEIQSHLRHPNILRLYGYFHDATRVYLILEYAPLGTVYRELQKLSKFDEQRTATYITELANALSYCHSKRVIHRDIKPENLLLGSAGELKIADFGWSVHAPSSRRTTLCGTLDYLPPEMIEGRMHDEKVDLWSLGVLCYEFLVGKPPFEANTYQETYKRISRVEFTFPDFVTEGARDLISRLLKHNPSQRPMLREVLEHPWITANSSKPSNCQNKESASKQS
Description: SelectScreen kinase profiling. The assay is classed as biochemical. As to the method: as §1

In another assay the target is T3, Src kinase domain (Gallus gallus, UniProt P00523).
T3 construct: chicken c-Src (residues 251-533 and residues 83-533); made in house
Description: Fluorescence anisotropy binding assay. Set-up: species or system chicken. Particulars: fluorescein-labeled macrocycle, read-out: dissociation constant (KD). As to the method: The change in fluorescence anisotropy of fluorescein-labeled MC1, MC4 and MC9 at 518 nm upon excitation at 492 nm was monitored with a HORIBA Jobin Yvon FluoroMax-4 (Edison, N.J.) spectrofluorimeter. Kinase was titrated to 0.5 μM of the fluorescently labeled macrocycle in 100 mM Tris pH 8.0, 10 mM MgCl2 at 25° C. After equilibration, the increase in the fluorescence anisotropy of the fluorescently labeled ligand was recorded and fitted against a quadratic binding equation in Kaleidagraph (Synergy Software, Reading Pa.) to yield the dissociation constant KD.
To clarify the inhibitory mechanism of the compounds further, the binding affinity of fluorescently labeled MC1, MC4, and MC9 to Src kinase domain was determined in a fluorescence anisotropy assay (FIG. 21).
On the technique in general: Polarisation of emitted light reports the rotation of a fluorescent probe.

Assay [3] has as its target T4, HCK (Homo sapiens, UniProt P08631). Description: Continuous spectrophotometric kinase activity assay. The format is biochemical. Set-up: Kinase domain constructs of human c-Abl (residues 229-512), chicken c-Src (residues 251-533 and residues 83-533), murine Lck (residues 227-509), and human Hck (residues 166-445); made in house. From the text: (§2) Kinase domain constructs of human c-Abl (residues 229-512), chicken c-Src (residues 251-533 and residues 83-533), murine Lck (residues 227-509), and human Hck (residues 166-445) were expressed as previously described (Seeliger, Young et al. 2005; Seeliger, Nagar et al. 2007; the entire contents of each of which are incorporated by reference herein). Mutations were introduced into chicken c-Src (residues 251-533) (T338I, C277Q, L297M) by site-directed mutagenesis and verified by DNA sequencing.
(§3) In vitro kinase inhibition assays were performed using either a continuous spectrophotometric assay or a FRET-based endpoint assay.
(§4) The original characterization of kinase inhibition was performed with a commercial kinase assay that relies on a fluorescently labeled peptide kinase substrate (Z-LYTE, Invitrogen). For further characterization, a continuous spectrophotometric kinase activity assay was employed that is easily adapted to different substrate peptides as well as a wider range of peptide and ATP concentrations.
Target sequence in this assay (P08631 262-515 limits assumed): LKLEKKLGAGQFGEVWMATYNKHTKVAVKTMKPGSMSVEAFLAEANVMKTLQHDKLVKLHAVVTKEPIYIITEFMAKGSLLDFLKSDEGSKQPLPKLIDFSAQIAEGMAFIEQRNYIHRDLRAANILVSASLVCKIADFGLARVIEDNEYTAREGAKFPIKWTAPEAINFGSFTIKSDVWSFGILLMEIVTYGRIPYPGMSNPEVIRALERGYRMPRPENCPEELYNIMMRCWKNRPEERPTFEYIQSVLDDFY

The subject of assay [4] is panel of 58 commercially available human protein kinases. Description: Kinase selectivity panel, Invitrogen SelectScreen. The format is biochemical. On the procedure: Macrocycle cis-A11-B1-C5-D7 was assayed at 50 μM against a representative panel of 58 commercially available human protein kinases including all nine mammalian Src family kinases (Table 8).
as §1

In the next assay the target is T5, Lck (Mus musculus, UniProt P06240).
T5 construct: murine Lck (residues 227-509); made in house
T5 sequence (P06240 227-509): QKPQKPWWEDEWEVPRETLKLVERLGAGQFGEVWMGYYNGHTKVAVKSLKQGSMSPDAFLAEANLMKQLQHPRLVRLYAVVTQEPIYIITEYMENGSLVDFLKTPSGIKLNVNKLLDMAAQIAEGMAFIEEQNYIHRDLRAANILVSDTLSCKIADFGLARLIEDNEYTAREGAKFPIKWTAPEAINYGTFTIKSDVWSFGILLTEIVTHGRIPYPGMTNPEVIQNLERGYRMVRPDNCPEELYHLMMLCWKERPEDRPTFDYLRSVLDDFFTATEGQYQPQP
Description: Continuous spectrophotometric kinase activity assay. The assay is classed as biochemical, murine.
Source text: as §2, §3, §4

The target in the next assay is T6, Abl (Homo sapiens, UniProt P00519).
T6 construct: human c-Abl (residues 229-512); made in house
T6 sequence (P00519 229-512): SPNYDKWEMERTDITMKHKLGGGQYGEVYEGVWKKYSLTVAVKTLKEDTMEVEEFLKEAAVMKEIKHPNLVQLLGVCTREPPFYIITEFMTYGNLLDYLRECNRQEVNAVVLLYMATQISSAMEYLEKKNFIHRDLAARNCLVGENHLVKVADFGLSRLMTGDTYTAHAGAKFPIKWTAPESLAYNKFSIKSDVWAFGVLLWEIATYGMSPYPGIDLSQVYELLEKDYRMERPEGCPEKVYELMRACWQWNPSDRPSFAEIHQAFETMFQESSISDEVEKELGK
The description is as above. The format is biochemical.
Source text: as §2, §3, §4

Assay [5] deals with T7, Src kinase domain (chicken c-Src residues 251-533) (Gallus gallus, UniProt P00523).
T7 construct: chicken c-Src (residues 251-533 and residues 83-533); made in house
Described as above. The assay is classed as biochemical. To be noted: for IC50: Src kinase domain.
Source text: as §2, §3, §4

The target of another assay is AURKB (Aurora B) (Homo sapiens, UniProt Q96GD4). Description: SelectScreen kinase profiling. The assay is classed as biochemical. As to the method:
as §1

For the next assay, the target named is FYN (Homo sapiens, UniProt P06241). Description: SelectScreen kinase profiling. The format is biochemical. As to the method: as §1
For the next assay, the target named is RET (Homo sapiens, UniProt P07949). Description: SelectScreen kinase profiling. To be noted: 10-point titration. The assay is classed as biochemical. As to the method:
as §1

Another assay concerns the target FGR (Homo sapiens, UniProt P09769). Description: SelectScreen kinase profiling. To be noted: Fgr; 10-point titration. The assay is classed as biochemical. On the procedure: as §1
In assay [6] the target is T4, HCK. Description: SelectScreen kinase profiling. The format is biochemical. As to the method: as §1
Target sequence in this assay (P08631 whole entry, the tested form may be a part): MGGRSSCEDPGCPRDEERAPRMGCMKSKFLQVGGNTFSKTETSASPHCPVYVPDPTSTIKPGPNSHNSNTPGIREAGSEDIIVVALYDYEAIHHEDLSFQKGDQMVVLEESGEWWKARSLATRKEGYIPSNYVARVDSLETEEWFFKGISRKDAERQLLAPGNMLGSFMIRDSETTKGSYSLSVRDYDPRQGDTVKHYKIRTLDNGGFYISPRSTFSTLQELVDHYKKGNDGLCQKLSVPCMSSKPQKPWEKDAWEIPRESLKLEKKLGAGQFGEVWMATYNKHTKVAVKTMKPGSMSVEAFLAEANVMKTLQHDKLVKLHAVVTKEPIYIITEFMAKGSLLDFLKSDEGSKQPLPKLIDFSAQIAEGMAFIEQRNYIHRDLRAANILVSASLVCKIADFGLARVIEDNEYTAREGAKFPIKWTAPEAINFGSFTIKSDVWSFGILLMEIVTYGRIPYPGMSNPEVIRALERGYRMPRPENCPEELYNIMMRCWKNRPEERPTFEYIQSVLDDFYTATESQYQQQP
Another assay deals with protein kinases. To be noted: judged by similar criteria; cited from earlier work.
Assay [7] addresses BcLxL (1-209, Δ45-84, N-terminal GST-fused) (UniProt Q07817). Description: single round of affinity selection of the DNA-linked peptide on GST-Bcl-xL on glutathione beads; restriction digestion.
Setting [8] is: 5 μM ATP, 100 μM Src optimal peptide.
The mark [9] stands for this setting: 5 μM ATP, 300 μM Src optimal peptide.
[10] abbreviates: 250 μM ATP, 300 μM Src optimal peptide.

T1 sequence (P12931 whole entry, the tested form may be a part): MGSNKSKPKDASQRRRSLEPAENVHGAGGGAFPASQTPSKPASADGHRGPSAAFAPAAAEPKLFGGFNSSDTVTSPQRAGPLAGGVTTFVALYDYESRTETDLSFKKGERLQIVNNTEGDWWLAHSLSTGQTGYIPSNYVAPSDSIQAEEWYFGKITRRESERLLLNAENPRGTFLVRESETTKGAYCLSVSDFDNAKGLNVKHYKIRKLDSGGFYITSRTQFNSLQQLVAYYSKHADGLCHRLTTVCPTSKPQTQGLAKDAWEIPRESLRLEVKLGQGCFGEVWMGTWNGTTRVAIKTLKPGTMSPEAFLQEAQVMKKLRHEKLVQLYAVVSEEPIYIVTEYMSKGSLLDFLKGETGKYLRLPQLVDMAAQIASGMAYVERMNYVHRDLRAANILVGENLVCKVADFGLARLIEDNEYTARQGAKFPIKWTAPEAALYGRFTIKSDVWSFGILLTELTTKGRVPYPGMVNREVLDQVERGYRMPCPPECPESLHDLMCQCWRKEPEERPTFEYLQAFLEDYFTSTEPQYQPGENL
Sequence of ABL1 (P00519 whole entry): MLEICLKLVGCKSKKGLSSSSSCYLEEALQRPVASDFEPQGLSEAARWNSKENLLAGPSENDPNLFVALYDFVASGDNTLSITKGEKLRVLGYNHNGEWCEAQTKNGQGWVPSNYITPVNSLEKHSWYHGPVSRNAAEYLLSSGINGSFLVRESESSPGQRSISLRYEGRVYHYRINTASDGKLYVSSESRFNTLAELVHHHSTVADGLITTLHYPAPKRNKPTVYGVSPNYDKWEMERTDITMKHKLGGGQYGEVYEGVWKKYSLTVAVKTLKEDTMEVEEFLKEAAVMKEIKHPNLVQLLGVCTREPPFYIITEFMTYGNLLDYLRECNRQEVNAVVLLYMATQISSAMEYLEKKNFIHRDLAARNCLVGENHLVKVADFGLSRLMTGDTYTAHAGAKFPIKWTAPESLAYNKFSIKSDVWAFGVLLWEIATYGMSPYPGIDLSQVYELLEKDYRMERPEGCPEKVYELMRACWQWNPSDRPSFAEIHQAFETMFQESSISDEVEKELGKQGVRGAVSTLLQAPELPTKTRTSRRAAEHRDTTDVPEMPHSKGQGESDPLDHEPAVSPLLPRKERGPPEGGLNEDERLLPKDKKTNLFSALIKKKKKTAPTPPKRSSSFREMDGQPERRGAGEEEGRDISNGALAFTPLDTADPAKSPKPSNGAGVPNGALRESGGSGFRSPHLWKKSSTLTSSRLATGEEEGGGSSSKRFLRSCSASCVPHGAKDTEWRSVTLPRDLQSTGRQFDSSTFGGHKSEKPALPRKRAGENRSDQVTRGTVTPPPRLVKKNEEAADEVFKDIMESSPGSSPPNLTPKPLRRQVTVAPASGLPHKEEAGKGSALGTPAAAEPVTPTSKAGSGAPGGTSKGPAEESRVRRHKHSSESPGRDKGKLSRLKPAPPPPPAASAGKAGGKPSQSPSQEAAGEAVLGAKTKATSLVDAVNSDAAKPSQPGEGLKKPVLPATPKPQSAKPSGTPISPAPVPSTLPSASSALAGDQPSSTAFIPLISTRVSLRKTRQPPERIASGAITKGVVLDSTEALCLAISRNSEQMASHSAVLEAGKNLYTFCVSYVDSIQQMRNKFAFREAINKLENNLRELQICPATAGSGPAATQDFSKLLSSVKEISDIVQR
Sequence of RET (P07949 29-1114): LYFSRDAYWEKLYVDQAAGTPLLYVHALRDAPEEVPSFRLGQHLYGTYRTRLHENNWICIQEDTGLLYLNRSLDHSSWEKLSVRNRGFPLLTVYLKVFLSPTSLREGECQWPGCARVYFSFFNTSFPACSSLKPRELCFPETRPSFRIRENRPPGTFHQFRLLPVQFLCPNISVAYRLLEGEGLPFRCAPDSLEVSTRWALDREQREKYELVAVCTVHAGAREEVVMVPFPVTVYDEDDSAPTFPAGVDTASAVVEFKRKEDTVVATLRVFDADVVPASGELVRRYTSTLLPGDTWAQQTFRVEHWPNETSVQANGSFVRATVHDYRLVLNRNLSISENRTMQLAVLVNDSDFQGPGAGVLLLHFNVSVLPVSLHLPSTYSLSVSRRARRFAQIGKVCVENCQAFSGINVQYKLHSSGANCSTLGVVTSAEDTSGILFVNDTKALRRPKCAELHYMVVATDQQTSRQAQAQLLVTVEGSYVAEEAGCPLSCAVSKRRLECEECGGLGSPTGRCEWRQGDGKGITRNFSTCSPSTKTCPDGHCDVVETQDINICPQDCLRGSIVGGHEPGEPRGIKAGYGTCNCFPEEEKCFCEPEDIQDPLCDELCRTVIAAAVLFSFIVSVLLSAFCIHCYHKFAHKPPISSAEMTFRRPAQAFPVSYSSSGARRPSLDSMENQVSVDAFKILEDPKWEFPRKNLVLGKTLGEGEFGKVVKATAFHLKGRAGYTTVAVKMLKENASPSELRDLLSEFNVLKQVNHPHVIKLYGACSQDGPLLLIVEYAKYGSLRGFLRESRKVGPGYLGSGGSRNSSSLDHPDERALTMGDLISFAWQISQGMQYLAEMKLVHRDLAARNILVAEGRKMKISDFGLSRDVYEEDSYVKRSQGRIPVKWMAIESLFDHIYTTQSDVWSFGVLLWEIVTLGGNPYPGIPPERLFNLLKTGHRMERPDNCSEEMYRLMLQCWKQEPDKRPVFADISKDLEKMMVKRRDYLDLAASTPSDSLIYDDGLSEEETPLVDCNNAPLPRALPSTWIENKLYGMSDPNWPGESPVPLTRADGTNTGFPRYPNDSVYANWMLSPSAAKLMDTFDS
Sequence of AURKB (Aurora B) (Q96GD4 whole entry): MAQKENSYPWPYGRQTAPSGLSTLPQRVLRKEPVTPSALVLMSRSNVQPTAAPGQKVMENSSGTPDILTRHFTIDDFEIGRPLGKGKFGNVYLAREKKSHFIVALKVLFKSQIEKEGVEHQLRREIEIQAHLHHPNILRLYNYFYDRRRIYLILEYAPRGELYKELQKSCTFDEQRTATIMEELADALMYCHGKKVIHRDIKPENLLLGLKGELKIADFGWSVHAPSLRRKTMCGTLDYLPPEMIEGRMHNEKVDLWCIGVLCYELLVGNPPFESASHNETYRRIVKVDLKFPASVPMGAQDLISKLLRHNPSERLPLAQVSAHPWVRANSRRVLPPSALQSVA
Sequence of BcLxL (1-209, Δ45-84, N-terminal GST-fused) (Q07817 other isoform, or with tags, fused parts or gaps mutant): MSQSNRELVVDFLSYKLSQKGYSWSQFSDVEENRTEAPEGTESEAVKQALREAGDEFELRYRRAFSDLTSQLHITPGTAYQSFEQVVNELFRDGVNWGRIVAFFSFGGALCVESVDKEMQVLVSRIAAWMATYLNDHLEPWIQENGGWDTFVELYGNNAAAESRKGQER
Sequence of FGR (P09769 whole entry): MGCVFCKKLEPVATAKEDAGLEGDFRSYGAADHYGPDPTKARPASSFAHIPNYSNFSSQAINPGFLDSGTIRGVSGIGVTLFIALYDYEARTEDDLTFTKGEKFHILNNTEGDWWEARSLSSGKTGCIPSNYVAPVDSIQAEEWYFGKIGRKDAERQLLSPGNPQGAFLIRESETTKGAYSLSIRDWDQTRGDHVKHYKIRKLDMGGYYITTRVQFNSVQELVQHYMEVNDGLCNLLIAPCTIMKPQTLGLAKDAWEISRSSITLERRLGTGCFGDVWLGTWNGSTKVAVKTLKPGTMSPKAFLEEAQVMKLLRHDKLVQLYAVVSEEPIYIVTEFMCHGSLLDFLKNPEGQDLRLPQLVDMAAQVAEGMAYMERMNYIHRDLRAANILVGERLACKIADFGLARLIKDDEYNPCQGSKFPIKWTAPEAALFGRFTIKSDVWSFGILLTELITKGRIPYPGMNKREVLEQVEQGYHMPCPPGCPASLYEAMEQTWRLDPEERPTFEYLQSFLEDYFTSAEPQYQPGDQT

Regarding `NC(=O)[C@@H]1CCNC(=O)[C@H](CCCNC(=O)c2cnccn2)NC(=O)[C@H](Cc2ccco2)NC(=O)[C@H](CC2CC2)NC(=O)C=CC(=O)N1` [Macrocycle A11-B1-C5-D7], the “enrichment factor after selection against Src kinase” value at Src kinase [1] stood at 62 fold. For the same compound, on Src kinase [2], the “difference in potency between cis and trans stereoisomers (Src)” value was ~10 fold. For the same compound, the “selectivity for Src over Abl kinase” value at ABL1 is reported as > 50 fold. Moreover, the “selectivity for Aurora A among the Aurora family” value at AURKA (Aurora A) is > 100 fold.
One may read the Kd as the constant that tells how readily two partners part at equilibrium. In general, IC50 refers to the concentration needed to halve the response being measured. High values mean weaker potency, low ones greater potency. As for `NC(=O)[C@@H]1CCNC(=O)[C@H](CCCNC(=O)c2cnccn2)NC(=O)[C@H](Cc2ccco2)NC(=O)[C@H](CC2CC2)NC(=O)/C=C\C(=O)N1` [cis-A11-B1-C5-D7], the Kd on Src kinase domain (250 μM AMP-PNP) worked out at 3.3 µM; at Src kinase domain (no competitor), 2.1 µM. Besides, the IC50 against HCK [3] (setting [8]) is > 100 µM; against HCK [3] (setting [9]), > 100 µM; on HCK [3] (setting [10]) it was > 100 µM; on Src kinase [2] (Z'-LYTE, ATP near KM), 0.96 µM; on Lck (setting [8]), > 100 µM; at Lck (setting [9]), > 100 µM. The IC50 on Lck (setting [10]) is > 100 µM; on Abl (setting [8]), > 100 µM; against Abl (setting [9]) it was > 100 µM; on Abl (setting [10]), > 100 µM; in assay [5] (setting [8]), 16 µM; in assay [5] (setting [9]), 26 µM. The IC50 in [5] (setting [10]) was 89 µM; against RET it was 5.7 µM; at FGR, 4 µM; on AURKA (Aurora A) (Aurora A, 10-point titration) it was 1.7 µM. Besides, at Src kinase [2] (apparent KM for ATP versus macrocycle concentration), the “mode of Src inhibition” value is recorded as “ATP-competitive”. Further, the “selectivity for Src over all remaining Src-family kinases with the exception of Fgr” value in assay [4] is on record as > 10 fold. Besides, the selectivity score in assay [4] (fraction of non-target kinases with IC50 within 10-fold of Src IC50 (960 nM)) is on record as 0.05. In addition, the “increase in IC50 upon increasing substrate peptide 3-fold to 300 μM” value in assay [5] (Src optimal substrate peptide 100 to 300 μM) was found to be 50%. Moreover, the “selectivity for Aurora A over Aurora B” value at AURKB (Aurora B) is > 50 fold. In addition, on FYN, the “selectivity for Src over Fyn” value was > 50 fold. For the same compound, the “selectivity for Src over Abl kinase” value at ABL1 is > 50 fold. Besides, on HCK [6], the “selectivity for Src over Hck” value is > 50 fold.
Regarding `CN[C@@H]1C[C@H]2O[C@@](C)([C@@H]1OC)n1c3ccccc3c3c4c(c5c6ccccc6n2c5c31)C(=O)NC4` [staurosporine], the selectivity score in the assay with protein kinases is reported as 0.50.
Turning to Bak peptide (DNA-linked), the Enrichment Factor in assay [7] was determined as 200.
